Assay results taken from article PMC6326999, “Functionalized Magnetic Bacterial Cellulose Beads as Carrier for Lecitase® Ultra Immobilization” (Applied Biochemistry and Biotechnology, 2018).

System: T1, Lecitase® Ultra (LU)
T1 construct: gene LIP; commercial preparation (Sigma-Aldrich), free enzyme
Assay: absorbance at […] nm, hydrolysis initial rates, non-linear Michaelis-Menten fit
Type: biochemical
Settings: free enzyme; 50 mM Tris-Cl pH 8.5, 0.25% Triton X-100, 30 °C (standard assay); commercial preparation; kcat column headed 'Kcat × 10^3 (s^-1)'

`CCCCCCCCCCCCCCCC(=O)Oc1ccc([N+](=O)[O-])cc1` [4-nitrophenol palmitate] was tested, and the Km was 450 ± 50 µM.
